Source: the NIST ThermoML archive (doi:10.1016/j.jct.2013.10.025)

Assay: xn = mol fraction of the nth substance listed
Settings: 101 kPa, Liquid; for viscosity: Capillary tube (Ostwald / Ubbelohde) method; for speed of sound: Sing-around technique in a fixed-path interferometer; for mass density: Vibrating tube method

CCCCCCCCCCO [decan-1-ol] + C1CCOC1
Settings | mass density [kg/m3] | speed of sound [m/s] | viscosity [mPa·s]
298.15 K, x2 = 0.0503 | 827.6 | 1372.7 | 9.806
298.15 K, x2 = 0.1046 | 828.949 | 1368.8 | 8.47
298.15 K, x2 = 0.157 | 830.327 | 1365.1 | 7.201
298.15 K, x2 = 0.2022 | 831.593 | 1361.8 | 6.345
298.15 K, x2 = 0.253 | 833.093 | 1357.5 | 5.428
298.15 K, x2 = 0.3057 | 834.766 | 1352.6 | 4.609
298.15 K, x2 = 0.4094 | 838.49 | 1343.7 | 3.343
298.15 K, x2 = 0.5018 | 842.347 | 1334 | 2.503
298.15 K, x2 = 0.6038 | 847.354 | 1323.4 | 1.842
298.15 K, x2 = 0.7003 | 853.111 | 1312.4 | 1.366
298.15 K, x2 = 0.8004 | 860.53 | 1299.3 | 0.98
298.15 K, x2 = 0.9043 | 870.265 | 1286.4 | 0.691
303.15 K, x2 = 0.0503 | 824.137 | 1355.9 | 8.074
303.15 K, x2 = 0.1046 | 825.438 | 1351.7 | 7.037
303.15 K, x2 = 0.157 | 826.766 | 1348.3 | 6.17
303.15 K, x2 = 0.2022 | 827.998 | 1344.4 | 5.262
303.15 K, x2 = 0.253 | 829.453 | 1339.9 | 4.527
303.15 K, x2 = 0.3057 | 831.076 | 1335 | 3.958
303.15 K, x2 = 0.4094 | 834.656 | 1325.7 | 2.908
303.15 K, x2 = 0.5018 | 838.365 | 1315.6 | 2.095
303.15 K, x2 = 0.6038 | 843.203 | 1304.3 | 1.635
303.15 K, x2 = 0.7003 | 848.748 | 1292.6 | 1.224
303.15 K, x2 = 0.8004 | 855.869 | 1278.9 | 0.907
303.15 K, x2 = 0.9043 | 865.235 | 1264.9 | 0.649
308.15 K, x2 = 0.0503 | 820.661 | 1339.1 | 6.379
308.15 K, x2 = 0.1046 | 821.913 | 1335 | 5.67
308.15 K, x2 = 0.157 | 823.195 | 1331.1 | 4.969
308.15 K, x2 = 0.2022 | 824.389 | 1327 | 4.236
308.15 K, x2 = 0.253 | 825.796 | 1322.2 | 3.663
308.15 K, x2 = 0.3057 | 827.357 | 1317.2 | 3.249
308.15 K, x2 = 0.4094 | 830.825 | 1307.1 | 2.385
308.15 K, x2 = 0.5018 | 834.401 | 1296.8 | 1.738
308.15 K, x2 = 0.6038 | 839.036 | 1284.4 | 1.408
308.15 K, x2 = 0.7003 | 844.365 | 1271.8 | 1.04
308.15 K, x2 = 0.8004 | 851.199 | 1257.6 | 0.807
308.15 K, x2 = 0.9043 | 860.184 | 1241.5 | 0.58
313.15 K, x2 = 0.0503 | 817.16 | 1322.7 | –
313.15 K, x2 = 0.1046 | 818.367 | 1318.3 | –
313.15 K, x2 = 0.157 | 819.603 | 1314.4 | –
313.15 K, x2 = 0.2022 | 820.753 | 1310.1 | –
313.15 K, x2 = 0.253 | 822.116 | 1305.7 | –
313.15 K, x2 = 0.3057 | 823.62 | 1300.1 | –
313.15 K, x2 = 0.4094 | 826.953 | 1289.6 | –
313.15 K, x2 = 0.5018 | 830.393 | 1278.9 | –
313.15 K, x2 = 0.6038 | 834.849 | 1266.3 | –
313.15 K, x2 = 0.7003 | 839.96 | 1253.2 | –
313.15 K, x2 = 0.8004 | 846.506 | 1238.4 | –
313.15 K, x2 = 0.9043 | 855.097 | 1221.6 | –

CCCCCCO [hexan-1-ol] + C1CCOC1
Settings | mass density [kg/m3] | speed of sound [m/s] | viscosity [mPa·s]
298.15 K, x2 = 0.0538 | 817.624 | 1301.1 | 3.778
298.15 K, x2 = 0.1144 | 820.377 | 1298.8 | 3.16
298.15 K, x2 = 0.1511 | 822.105 | 1297 | 2.887
298.15 K, x2 = 0.2009 | 824.537 | 1295 | 2.477
298.15 K, x2 = 0.256 | 827.327 | 1292.7 | 2.133
298.15 K, x2 = 0.3156 | 830.492 | 1291 | 1.855
298.15 K, x2 = 0.4199 | 836.41 | 1287.7 | 1.453
298.15 K, x2 = 0.5013 | 841.407 | 1285.1 | 1.199
298.15 K, x2 = 0.6029 | 848.183 | 1282.2 | 0.986
298.15 K, x2 = 0.7071 | 855.823 | 1279.3 | 0.786
298.15 K, x2 = 0.8042 | 863.667 | 1277.1 | 0.661
298.15 K, x2 = 0.9057 | 872.745 | 1276.4 | 0.559
303.15 K, x2 = 0.0538 | 813.958 | 1284.1 | 3.22
303.15 K, x2 = 0.1144 | 816.633 | 1281.5 | 2.737
303.15 K, x2 = 0.1511 | 818.311 | 1279.5 | 2.516
303.15 K, x2 = 0.2009 | 820.671 | 1277.3 | 2.148
303.15 K, x2 = 0.256 | 823.388 | 1275.1 | 1.901
303.15 K, x2 = 0.3156 | 826.467 | 1272.8 | 1.633
303.15 K, x2 = 0.4199 | 832.217 | 1269 | 1.325
303.15 K, x2 = 0.5013 | 837.071 | 1265.9 | 1.107
303.15 K, x2 = 0.6029 | 843.655 | 1262.2 | 0.904
303.15 K, x2 = 0.7071 | 851.067 | 1258.5 | 0.719
303.15 K, x2 = 0.8042 | 858.694 | 1255.6 | 0.619
303.15 K, x2 = 0.9057 | 867.506 | 1254 | 0.536
308.15 K, x2 = 0.0538 | 810.268 | 1267.1 | 2.728
308.15 K, x2 = 0.1144 | 812.863 | 1264 | 2.373
308.15 K, x2 = 0.1511 | 814.495 | 1261.9 | 2.13
308.15 K, x2 = 0.2009 | 816.788 | 1259.4 | 1.886
308.15 K, x2 = 0.256 | 819.426 | 1257.1 | 1.598
308.15 K, x2 = 0.3156 | 822.411 | 1254.3 | 1.422
308.15 K, x2 = 0.4199 | 827.995 | 1249.8 | 1.127
308.15 K, x2 = 0.5013 | 832.704 | 1246 | 0.95
308.15 K, x2 = 0.6029 | 839.095 | 1241.4 | 0.796
308.15 K, x2 = 0.7071 | 846.295 | 1236.7 | 0.64
308.15 K, x2 = 0.8042 | 853.69 | 1232.5 | 0.566
308.15 K, x2 = 0.9057 | 862.242 | 1230 | 0.47
313.15 K, x2 = 0.0538 | 806.544 | 1250.3 | –
313.15 K, x2 = 0.1144 | 809.062 | 1246.9 | –
313.15 K, x2 = 0.1511 | 810.645 | 1244.7 | –
313.15 K, x2 = 0.2009 | 812.872 | 1242.7 | –
313.15 K, x2 = 0.256 | 815.429 | 1239.8 | –
313.15 K, x2 = 0.3156 | 818.321 | 1236.7 | –
313.15 K, x2 = 0.4199 | 823.739 | 1231.7 | –
313.15 K, x2 = 0.5013 | 828.306 | 1227.5 | –
313.15 K, x2 = 0.6029 | 834.502 | 1222.5 | –
313.15 K, x2 = 0.7071 | 841.483 | 1217 | –
313.15 K, x2 = 0.8042 | 848.648 | 1212.4 | –
313.15 K, x2 = 0.9057 | 856.935 | 1209 | –
